Data taken from patent US12064409B2, “Action of L-citrulline to prevent or treat endothelial dysfunction” (Asklepion Pharmaceuticals, LLC, priority 2021, dated 2024).
Where two headings read alike, the source gives them in different places.

Columns and labels:
[1] = human, in vivo; cited from earlier work
[2] = Phase IB trial of intravenous L-citrulline versus placebo in children undergoing cardiopulmonary bypass (IND #66,261); type: in vivo
Description: FIG. 1. Duration of mechanical ventilation therapy following cardiopulmonary bypass in citrulline treated and control patients.
FIG. 2. Duration of inotrope therapy following cardiopulmonary bypass in citrulline treated and control patients.
FIG. 3. Maximum of mechanical ventilation or inotrope therapy (surrogate for duration of ICU stay) following cardiopulmonary bypass in citrulline treated and control patients.
A recent study^39 carried out under IND #66,261 examined whether maintenance of plasma citrulline levels at steady state levels at or above 100 micromolar would prevent the occurrence of pulmonary complications of cardiopulmonary bypass in children undergoing congenital heart repair surgery. For pulmonary function, the endpoint was the post-operative duration of mechanical ventilation (see FIG. 1). Alternative endpoints included the duration of post-operative inotrope therapy (see FIG. 2) and the length of time in the intensive care unit (see FIG. 3).

[3] = cited from earlier work
[4] = in vivo, iv
COVID-19 (SARS-CoV2) = experiment: Example I, intravenous citrulline treatment of hospitalized Covid-19 patients; type: in vivo; conditions: intravenous bolus 20 mg/kg then 9 mg/kg per hour infusion up to 10 days
Method: Subjects hospitalized and requiring oxygen for an acute hypoxemic respiratory illness due to COVID-19 (SARS-CoV2) will be treated. In addition, subjects will receive standard supportive care for acute hypoxemic respiratory illness and failure. The assessment of efficacy will include collection of plasma for analysis of citrulline and arginine levels at 2 hours, 12 hours, and the alternating morning of study days. Optionally, samples may also be analyzed for D-dimer and angiopoietin-2 levels.
The assessment of efficacy will include collection of plasma for analysis of citrulline and arginine levels at 2 hours, 12 hours, and the alternating morning of hospitalization days. Additional efficacy measures will include clinical outcomes, including progression of acute lung injury and, lengths of hospital and ICU stay. The assessment of safety will include collection of hemodynamic measurements at least every 4 hours on a hospital unit.
Patients will receive an initial intravenous bolus of 20 mg/kg (to a maximum of 1500 mg) L-citrulline over 10 minutes. The infusion solution will be prepared as a 5% isotonic solution (50 mg/mL) in 5% dextrose water. […]
Participant survival will be assessed at hospital discharge. […] Hospital length of stay will be calculated as the number of days from admission to hospital discharge.

[5] = in vivo; cited from earlier work
[6] = plasma citrulline 12 h postoperatively <37 μmol/L

## NC(=O)NCCC[C@H](N)C(=O)O [citrulline, L-citrulline]
[1]
  Adverse effects: no observed adverse effects
[2]; citrulline treated vs control patients, Wilcoxon rank-sum p=0.0089, plasma citrulline at or above 100 micromolar
  Duration of mechanical ventilation therapy following cardiopulmonary bypass: treated differs from control
[2]; citrulline treated vs control patients, Wilcoxon rank-sum p=0.0351
  Duration of inotrope therapy following cardiopulmonary bypass: treated differs from control
[2]; citrulline treated vs control patients, Wilcoxon rank-sum p=0.0479
  Maximum of mechanical ventilation or inotrope therapy (surrogate for duration of ICU stay) following cardiopulmonary bypass: treated differs from control
[2]; plasma citrulline maintained at or above 100 micromolar, by time on mechanical ventilation and duration of inotrope therapy
  Complications of cardiopulmonary bypass: prevented the complications of bypass
[3]; [6]
  Pulmonary hypertension absent (number of patients): 18
  Pulmonary hypertension present (number of patients): 9
[3]; plasma citrulline 12 h postoperatively >37 μmol/L, P value .036
  Pulmonary hypertension present (number of patients): *0
[3]; plasma citrulline 12 h postoperatively >37 μmol/L
  Pulmonary hypertension absent (number of patients): 12
[4]
  Drug-associated adverse events: no drug-associated adverse events
COVID-19 (SARS-CoV2)
  Length of time to an intubation event from the start of study infusion: extend the length of time to an intubation event
  Total length of all mechanical ventilation, including non-invasive modalities: reduce the total length of all mechanical ventilation
[5]
  half-life of citrulline in plasma: about 1 hour
